Results reported in the supplement of paper PMC10883282.

Assays:
Test in all cases: relative viability vs DMSO control (72 h) (fraction); higher = more viable cells
SYO-1 = tested on: SYO-1
In short: (§1)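 Sarcoma cell lines were plated in 384 wells to reach 80–90% confluence, treated after 24 h with 2.5 µl of serially diluted compound and held 72 h at 37 °C, 5% CO2. Relative viability was taken as percent growth from ATPLite readings, averaged over up to triplicate wells. The values were rescaled so that 1 marks full and 0 marks none.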

RD = tested on: RD
In short: as §1

SW684 = tested on: SW684
In short: as §1

SW872 = tested on: SW872
In short: as §1

HS729 = tested on: HS729
In short: as §1

SW1353 = tested on: SW1353
In short: as §1

KHOS-NP = tested on: KHOS-NP
In short: as §1

G401 = tested on: G401
In short: as §1

HT1080 = tested on: HT1080
In short: as §1

RD-ES = tested on: RD-ES
In short: as §1

SK-LMS-1 = tested on: SK-LMS-1
In short: as §1

KHOS-240S = tested on: KHOS-240S
In short: as §1

N#CC1(c2ccc(NC(=O)c3cccnc3NCc3ccncc3)cc2)CCCC1 [Apatinib]
Conditions | relative viability
G401, 0.00017 µM | 1.006
G401, 0.00051 µM | 1
G401, 0.00152 µM | 0.995
G401, 0.00457 µM | 0.979
G401, 0.01372 µM | 1.01
G401, 0.04115 µM | 0.995
G401, 0.1235 µM | 0.955
G401, 0.3704 µM | 0.927
G401, 1.111 µM | 0.901
G401, 3.333 µM | 0.895
G401, 10 µM | 0.7567
HS729, 0.00017 µM | 1.06
HS729, 0.00051 µM | 1.0262
HS729, 0.00152 µM | 1.066
HS729, 0.00457 µM | 1.04
HS729, 0.01372 µM | 0.997
HS729, 0.04115 µM | 1.03
HS729, 0.1235 µM | 1.04
HS729, 0.3704 µM | 0.963
HS729, 1.111 µM | 0.906
HS729, 3.333 µM | 0.865
HS729, 10 µM | 0.745
HT1080, 0.00017 µM | 1.02
HT1080, 0.00051 µM | 1.05
HT1080, 0.00152 µM | 1.05
HT1080, 0.00457 µM | 1.081
HT1080, 0.01372 µM | 1.07
HT1080, 0.04115 µM | 1.05
HT1080, 0.1235 µM | 1.069
HT1080, 0.3704 µM | 1.04
HT1080, 1.111 µM | 1.03
HT1080, 3.333 µM | 1.04
HT1080, 10 µM | 0.9829
KHOS-240S, 0.00017 µM | 1.04
KHOS-240S, 0.00051 µM | 1.06
KHOS-240S, 0.00152 µM | 1.05
KHOS-240S, 0.00457 µM | 1.04
KHOS-240S, 0.01372 µM | 1.04
KHOS-240S, 0.04115 µM | 1.05
KHOS-240S, 0.1235 µM | 1.03
KHOS-240S, 0.3704 µM | 0.991
KHOS-240S, 1.111 µM | 0.97
KHOS-240S, 3.333 µM | 0.956
KHOS-240S, 10 µM | 0.873
KHOS-NP, 0.00017 µM | 1.03
KHOS-NP, 0.00051 µM | 1.04
KHOS-NP, 0.00152 µM | 1.05
KHOS-NP, 0.00457 µM | 1.05
KHOS-NP, 0.01372 µM | 1.06
KHOS-NP, 0.04115 µM | 1.08
KHOS-NP, 0.1235 µM | 1.04
KHOS-NP, 0.3704 µM | 1.027
KHOS-NP, 1.111 µM | 1
KHOS-NP, 3.333 µM | 0.918
KHOS-NP, 10 µM | 0.726
RD, 0.00017 µM | 0.992
RD, 0.00051 µM | 1.02
RD, 0.00152 µM | 1.03
RD, 0.00457 µM | 1.01
RD, 0.01372 µM | 1.02
RD, 0.04115 µM | 1.01
RD, 0.1235 µM | 1.02
RD, 0.3704 µM | 1.01
RD, 1.111 µM | 1.05
RD, 3.333 µM | 1.09
RD, 10 µM | 1.12
RD-ES, 0.00017 µM | 0.936
RD-ES, 0.00051 µM | 0.968
RD-ES, 0.00152 µM | 0.979
RD-ES, 0.00457 µM | 0.946
RD-ES, 0.01372 µM | 0.942
RD-ES, 0.04115 µM | 0.961
RD-ES, 0.1235 µM | 0.955
RD-ES, 0.3704 µM | 0.902
RD-ES, 1.111 µM | 0.91
RD-ES, 3.333 µM | 0.892
RD-ES, 10 µM | 0.798
SK-LMS-1, 0.00017 µM | 1.06
SK-LMS-1, 0.00051 µM | 1.06
SK-LMS-1, 0.00152 µM | 1.07
SK-LMS-1, 0.00457 µM | 1.05
SK-LMS-1, 0.01372 µM | 1.07
SK-LMS-1, 0.04115 µM | 1.08
SK-LMS-1, 0.1235 µM | 1.01
SK-LMS-1, 0.3704 µM | 1.05
SK-LMS-1, 1.111 µM | 1.02
SK-LMS-1, 3.333 µM | 1
SK-LMS-1, 10 µM | 0.833
SW684, 0.00017 µM | 1.04
SW684, 0.00051 µM | 1.1
SW684, 0.00152 µM | 1.06
SW684, 0.00457 µM | 1.08
SW684, 0.01372 µM | 1.09
SW684, 0.04115 µM | 1.09
SW684, 0.1235 µM | 1.1
SW684, 0.3704 µM | 1.05
SW684, 1.111 µM | 1.07
SW684, 3.333 µM | 1.05
SW684, 10 µM | 1.02
SW872, 0.00017 µM | 1.06
SW872, 0.00051 µM | 1.07
SW872, 0.00152 µM | 1.05
SW872, 0.00457 µM | 1.05
SW872, 0.01372 µM | 1.08
SW872, 0.04115 µM | 1.08
SW872, 0.1235 µM | 1.05
SW872, 0.3704 µM | 1.02
SW872, 1.111 µM | 1.02
SW872, 3.333 µM | 1.03
SW872, 10 µM | 0.972
SW1353, 0.00017 µM | 1.03
SW1353, 0.00051 µM | 1.005
SW1353, 0.00152 µM | 0.988
SW1353, 0.00457 µM | 1.01
SW1353, 0.01372 µM | 0.9811
SW1353, 0.04115 µM | 0.992
SW1353, 0.1235 µM | 0.981
SW1353, 0.3704 µM | 0.948
SW1353, 1.111 µM | 0.935
SW1353, 3.333 µM | 0.994
SW1353, 10 µM | 0.928
SYO-1, 0.00017 µM | 1.01
SYO-1, 0.00051 µM | 1.03
SYO-1, 0.00152 µM | 1.01
SYO-1, 0.00457 µM | 1.02
SYO-1, 0.01372 µM | 1.01
SYO-1, 0.04115 µM | 1.02
SYO-1, 0.1235 µM | 0.957
SYO-1, 0.3704 µM | 0.91
SYO-1, 1.111 µM | 0.747
SYO-1, 3.333 µM | 0.678
SYO-1, 10 µM | 0.552
